Results: ChEMBL document CHEMBL6134872, “Efficacy and Toxicity Analysis of Selective BET Bromodomain Inhibitors in Models of Inflammatory Liver Disease” (J Med Chem, 2025)
Active and inactive are the calls of the source. The calls are words filed in the database; no cut-off is given here.

Legend:
[1] = molecular target: Bromodomain-containing protein 2 (Homo sapiens, UniProt P25440); experiment: Inhibition of his9-tagged BRD2-BD2 (unknown origin) preincubated for 30 mins followed by addition of biotinylated peptide and measured after 30 mins by Alphascreen assay
Mus musculus [2] = experiment: Antiinflammatory activity against APAP-induced C57BL/6J mouse liver injury model assessed as reduction in Ccl2 expression at 30 mg/kg, po preincubated for 1 hr followed by APAP stimulation and measured after 8 hrs by qPCR analysis; type: functional, organism-based; conditions: time 9.0 hrs
TSEC [3] = experiment: Antiinflammatory activity against LPS induced mouse TSEC cells assessed as inhibition of CCL2 expression at 0.3 to 5 uM preincubated for 1 hr followed by LPS stimulation and measured after 4 hrs by qPCR analysis; type: functional, cell-based; conditions: dose 0.3-5 µM, time 5.0 hrs
Mus musculus [4] = experiment: Antiinflammatory activity against APAP-induced C57BL/6J mouse liver injury model assessed as reduction in necrosis at 30 mg/kg, po preincubated for 1 hr followed by APAP stimulation and measured after 12 hrs by H and E staining based analysis; type: functional, organism-based
[5] = Cytotoxicity against mouse TSEC cells at up to 200 uM measured after 4 hrs by XTT assay; type: toxicity, cell-based
[6] = Toxicity in mouse Megakaryocyte cells assessed as reduction in thrombocytopenia risk by CFU-MK Assay; type: cell-based
Mus musculus [7] = experiment: Antiinflammatory activity against APAP-induced C57BL/6J mouse liver injury model assessed as reduction in Cxcl2 expression at 30 mg/kg, po preincubated for 1 hr followed by APAP stimulation and measured after 8 hrs by qPCR analysis; type: functional, organism-based; conditions: time 9.0 hrs
TSEC [8] = experiment: Antiinflammatory activity against LPS induced mouse TSEC cells assessed as inhibition of CXCL1 expression at 0.3 to 5 uM preincubated for 1 hr followed by LPS stimulation and measured after 4 hrs by qPCR analysis; type: functional, cell-based; conditions: dose 0.3-5 µM, time 5.0 hrs
[9] = Metabolic stability in mouse liver microsomes assessed as half life […] measured after 60 mins in presence of NADPH by LC-MS/MS analysis; type: ADME, Microsome
[10] = molecular target: T1, Bromodomain-containing protein 4 (Homo sapiens, UniProt O60885); experiment: Binding affinity to N-luc fused BRD4-BD1 in HEK293T cells assessed as apparent inhibition constant using NanoGlo substrate as substrate incubated for 2 hrs by NanoBRET assay; type: cell-based; conditions: read-out: Ki(app)
[11] = Half life in male C57BL6 mouse liver at 10 mg/kg, ip measured up to 24 hrs by LC-MS/MS analysis; type: ADME, organism-based; conditions: for half-life: male, C57BL6, mouse, liver
[12] = molecular target: T1, Bromodomain-containing protein 4; experiment: Inhibition of his9-tagged BRD4-BD1 (unknown origin) preincubated for 30 mins followed by addition of biotinylated peptide and measured after 30 mins by Alphascreen assay
[13] = molecular target: T1, Bromodomain-containing protein 4; experiment: Inhibition of human his tagged BRD4-BD2 using Histone H4 peptide (1-21) K5/8/12/16Ac as substrate preincubated for 30 mins followed by addition of biotinylated peptide and measured after 30 mins by Alphascreen assay
Mus musculus [14] = experiment: Antiinflammatory activity against APAP-induced C57BL/6J mouse liver injury model assessed as reduction in Cxcl1 expression at 30 mg/kg, po preincubated for 1 hr followed by APAP stimulation and measured after 8 hrs by qPCR analysis; type: functional, organism-based; conditions: time 9.0 hrs
[15] = AUC in male C57BL6 mouse plasma at 10 mg/kg, ip measured up to 24 hrs by LC-MS/MS analysis; type: ADME, organism-based; conditions: for AUC at 24 h: male, C57BL6, mouse, plasma
[16] = AUC in male C57BL6 mouse liver at 10 mg/kg, ip measured up to 24 hrs by LC-MS/MS analysis; type: ADME, organism-based; conditions: in vivo
Mus musculus [17] = experiment: Antiinflammatory activity against LPS-induced C57BL/6J mouse model assessed as reduction in Ccl2 expression at 30 mg/kg, po preincubated for 1 hr followed by LPS stimulation and measured after 8 hrs by qPCR analysis; type: functional, organism-based; conditions: time 9.0 hrs
[18] = molecular target: T1, Bromodomain-containing protein 4; experiment: Induction of stabilization of BRD4-BD1 in human HEK293T cells at 0.5 to 5 uM incubated for 2 hrs by CESTA analysis; type: cell-based; conditions: dose 0.5-5 µM
Mus musculus [19] = experiment: Antiinflammatory activity against LPS-induced C57BL/6J mouse model assessed as reduction in Cxcl1 expression at 30 mg/kg, po preincubated for 1 hr followed by LPS stimulation and measured after 8 hrs by qPCR analysis; type: functional, organism-based; conditions: time 9.0 hrs
[20] = Cmax in male C57BL6 mouse liver at 10 mg/kg, ip measured up to 24 hrs by LC-MS/MS analysis; type: ADME, organism-based; conditions: in vivo
[21] = molecular target: T1, Bromodomain-containing protein 4; experiment: Inhibition of N-luc fused BRD4-BD1 in HEK293T cells using NanoGlo substrate as substrate at 10 uM incubated for 2 hrs by NanoBRET assay relative to control; type: cell-based
[22] = molecular target: T1, Bromodomain-containing protein 4; experiment: Inhibition of N-luc fused BRD4-BD1 in HEK293T cells using NanoGlo substrate as substrate incubated for 2 hrs by NanoBRET assay; type: cell-based
Mus musculus [23] = experiment: Antiinflammatory activity against LPS-induced C57BL/6J mouse model assessed as reduction in Cxcl2 expression at 30 mg/kg, po preincubated for 1 hr followed by LPS stimulation and measured after 8 hrs by qPCR analysis; type: functional, organism-based; conditions: time 9.0 hrs
[24] = Apparent oral clearance in male C57BL6 mouse plasma at 10 mg/kg, ip measured up to 24 hrs by LC-MS/MS analysis; type: ADME, organism-based
[25] = Cmax in male C57BL6 mouse plasma at 10 mg/kg, ip measured up to 24 hrs by LC-MS/MS analysis; type: ADME, organism-based
Mus musculus [26] = experiment: Antiinflammatory activity against APAP-induced C57BL/6J mouse liver injury model assessed as reduction in Ly6G expression at 30 mg/kg, po preincubated for 1 hr followed by APAP stimulation and measured after 8 hrs by qPCR analysis; type: functional, organism-based; conditions: time 9.0 hrs
[27] = Cytotoxicity against mouse TSEC cells at 10 uM measured after 4 hrs by XTT assay; type: toxicity, cell-based
Mus musculus [28] = experiment: Antiinflammatory activity against LPS-induced C57BL/6J mouse model assessed as reduction in goblet cell in small intestine at 30 mg/kg, po preincubated for 1 hr followed by LPS stimulation and measured after 8 days by alcian blue staining based analysis; type: functional, organism-based; conditions: time 9.0 hrs
[29] = mouse, megakaryocyte cells (CFU-MK colony formation)
[30] = male, C57BL6, mouse, plasma, read-out: CL/F (converted)
[31] = mouse, in vivo, ip, 10 mg/kg, 24 h

Bromodomain-containing protein 2, sequence (P25440 whole entry): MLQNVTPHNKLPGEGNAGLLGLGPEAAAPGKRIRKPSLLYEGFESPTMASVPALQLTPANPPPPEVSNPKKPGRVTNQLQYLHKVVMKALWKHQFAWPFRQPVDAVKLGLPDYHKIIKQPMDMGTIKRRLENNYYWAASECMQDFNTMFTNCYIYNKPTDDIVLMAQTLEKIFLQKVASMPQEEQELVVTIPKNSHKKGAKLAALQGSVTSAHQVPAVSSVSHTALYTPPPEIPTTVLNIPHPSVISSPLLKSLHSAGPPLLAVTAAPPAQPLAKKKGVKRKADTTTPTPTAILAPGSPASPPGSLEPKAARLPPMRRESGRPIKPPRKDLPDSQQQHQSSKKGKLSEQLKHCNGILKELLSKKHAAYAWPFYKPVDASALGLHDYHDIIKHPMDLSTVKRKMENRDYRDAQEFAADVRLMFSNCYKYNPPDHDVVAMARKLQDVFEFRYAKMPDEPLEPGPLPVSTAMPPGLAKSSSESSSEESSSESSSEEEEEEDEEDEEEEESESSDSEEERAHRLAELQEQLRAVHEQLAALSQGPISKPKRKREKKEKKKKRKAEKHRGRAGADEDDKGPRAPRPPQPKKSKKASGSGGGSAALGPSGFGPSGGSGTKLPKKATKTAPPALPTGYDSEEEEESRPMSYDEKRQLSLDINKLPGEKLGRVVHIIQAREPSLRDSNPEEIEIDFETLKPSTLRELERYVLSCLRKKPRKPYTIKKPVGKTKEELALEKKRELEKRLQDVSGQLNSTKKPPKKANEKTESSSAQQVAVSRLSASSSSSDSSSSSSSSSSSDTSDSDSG

| SMILES | IC50 [1] | Activity (Mus musculus [2]) | Activity (TSEC [3]) | Activity (Mus musculus [4]) | Activity [5] | EC50 ([6]; megakaryocyte) | Activity (Mus musculus [7]) | Activity (TSEC [8]) | Activity (Mus musculus [14]) | AUC [16] | Activity (Mus musculus [17]) | Activity [18] | Activity (Mus musculus [19]) | Cmax [20] | Activity (Mus musculus [23]) | Cmax [25] | Activity (Mus musculus [26]) | Activity (Mus musculus [28]) | other results |
| --- | --- | --- | --- | --- | --- | --- | --- | --- | --- | --- | --- | --- | --- | --- | --- | --- | --- | --- | --- |
| CC(=O)Nc1c(F)cc(C(=O)N[C@H]2CC[C@H](O)CC2)cc1O[C@@H](C)c1ccccc1 [GSK046] | 49 nM | inactive | Active; Compound Is Less Effective Than I-Bet151 And Compound 3 | Active | Non-toxic | 380 nM | inactive |  |  |  |  |  |  |  |  |  |  |  |  |
| CCS(=O)(=O)Nc1ccc(Oc2ccc(F)cc2F)c(-c2cn(C)c(=O)c3[nH]ccc23)c1 [MIVEBRESIB] |  |  |  |  |  |  |  |  |  |  |  |  |  |  |  |  |  |  | EC50 [6, 29]: 645 nM |
| Cc1ccc(C(C)C)cc1Oc1nccc(-c2c(-c3ccc(C(F)(F)F)cc3)ncn2C2CCN(CCO)CC2)n1 | > 10000 nM | Active | Active | Active | Non-toxic | 1830 nM | inactive | Active | Active | 138 nmol·h/g | Active; Compound Showed No Significant Reduction Compared To I-Bet151 And Compound 3(Dw34) | inactive | Active; Compound Showed No Significant Reduction Compared To I-Bet151 And Compound 3(Dw34) | 38.9 nmol/g | Active; Compound Showed No Significant Reduction Compared To I-Bet151 And Compound 3(Dw34) | 1050 nM | inactive |  | half-life [9]: 1.29 h; Ki [10]: 936 nM; half-life [11]: 3.4 h; IC50 [12]: 111 nM; IC50 [13]: > 10000 nM; AUC at 24 h [15]: 4.04 µM·h; inhibition [21]: 36%; EC50 [22]: 2450 nM; CL/F [24, 30]: 65 mL/min/kg |
| Cc1ccc(C(C)C)cc1Oc1nccc(-c2c(-c3ccc(C(F)(F)F)cc3)ncn2C2CCNCC2)n1 |  | Active | Active | Active |  | 670 nM | Active | Active | Active | 1402 nmol·h/g | Active |  | Active | 137 nmol/g | Active | 1800 nM | Active | Active | half-life [9]: 3.45 h; t1/2 [11, 31]: 6.8 h; AUC [15, 31]: 40.2 µM·h; Activity [27]: Toxic; CL/F [24, 31]: 418 mL/min/kg |
| O=C(Nc1ccc(C(F)(F)F)cc1)Nc1ccc(S(=O)(=O)N2CCC[C@H]2CN2CCOCC2)cc1 | > 50000 nM |  |  |  |  |  |  |  |  |  |  |  |  |  |  |  |  |  |  |
| CCNC(=O)c1cc2c(-c3cc(C(C)(C)O)ccc3Oc3c(C)cc(F)cc3C)cn(C)c(=O)c2[nH]1 [ABBV-744] |  |  |  |  |  |  |  |  |  |  |  |  |  |  |  |  |  |  | EC50 [6, 29]: 3 nM |
| COc1cc2c(cc1-c1c(C)noc1C)ncc1[nH]c(=O)n([C@H](C)c3ccccn3)c12 |  | inactive |  | inactive | Non-toxic | 1280 nM | Active |  | Active |  | Active | Active | Active |  | Active |  | Active | Active |  |
| Cc1cc(C)cc(Oc2cccc(-c3c(C)nnn3C3CCN(CCN(C)C)CC3)n2)c1 |  | Active | Active | Active | Non-toxic | 90 nM | Active | Active | Active | 2.65 nmol·h/g | Active; Compound Showed No Significant Reduction Compared To I-Bet151 And Compound 3(Dw34) | inactive | Active; Compound Showed No Significant Reduction Compared To I-Bet151 And Compound 3(Dw34) | 3.69 nmol/g | Active; Compound Showed No Significant Reduction Compared To I-Bet151 And Compound 3(Dw34) | 430 nM | Active | Active | half-life [11]: 2.3 h; AUC at 24 h [15]: 0.64 µM·h; CL/F [24, 30]: 470 mL/min/kg |
